Key:
[1] = system: patients with prostate problems, such as an enlarged prostate; assay: Case report: enlarged prostate drugs combined with MR treatment; type: in vivo, human; details: for PSA count, last measurement before MR treatment: person, enlarged prostate for fifteen years, taking the drugs; for PSA count after eighteen months of treatment / prostate size after eighteen months of treatment: same subject, three MR treatments per week
Description: In one example, a person had been diagnosed with an enlarged prostate for fifteen years and their PSA count was rising (the last measurement was 2.35). The subject was taking the drugs Avodart and Flomax. The subject began a series of three treatments per week for […], and continuing on an ongoing basis.
In providing MR treatment to a subject with prostate problems, an amplitude of about 0.01 μG to about 0.4 μG, with a frequency of about 0.2799 Hz to about 11.197 Hz may be used.

[2] = system: osteoarthritis patients; details: person
Excerpt: In one example, a person suffered from back pain due to degenerative disk disease in their low back and sciatica. […] The subject was resonated approximately three times per week for more than one year.
In another example, a person experienced arthritis pain in a number of joints, including their hips, hands, and shoulders. The subject also suffered from sciatica in their hips and legs. The subject was taking Celebrex. The subject was resonated at least three times per week for one to two hours per session.
In a further example, a person experienced osteoarthritis pain and stiffness in their hands and finger joints. […] The subject was resonated twice for one-half hour per treatment. The subject was asked to rate their pain on a scale of zero (feels great) to ten (feels terrible) before and after treatment.
Alternatively, an amplitude of about 0.01 μG to about 0.46 μG, with a frequency of about 0.2799 Hz to about 12.8765 Hz may be used.

[3] = system: fibromyalgia patients; assay: Case reports: fibromyalgia, drugs combined with MR treatment; type: in vivo, human
Description: In one example, a person experienced fibromyalgia for a number of years. The subject also experienced insomnia, restless legs, and chronic fatigue. The subject took the drug Naproxen (Aleve). The subject received seven consecutive days of 1 to 1.5 hour treatments.
Their primary complaint was back pain. […] The subject received thirteen treatments within a two-month period. […] Approximately two months after completing their first series of treatment, they began a second regimen of ten treatments within a two-month period.
In a further example, a person at least fifty years old suffered from fibromyalgia for a number of years. […] The subject received daily (when possible) treatments for approximately one year.

[4] = system: migraine and headache patients; assay: Case reports: migraine and headache drugs combined with MR treatment; type: in vivo, human; details: for results on migraines / pain level before being resonated / reduction in pain level: person with migraines taking the drugs; for results on migraines: resonated ten times, 1 to 1.5 hours, over one month; for pain level before being resonated / pain level after treatment: scale of zero to ten; for reduction in pain level: two one-hour MR treatments three months apart; for pain level after treatment: same subject, after ten MR treatments over one month
Description: The subject was resonated ten times for 1 to 1.5 hours per treatment over a one-month period.
In another example, a person experienced pain associated with migraines. […] The subject received two one-hour treatments three months apart.
In a further example, a person experienced pain associated with severe headaches. The subject took Aspirin to treat the pain. The subject received one treatment for one hour.

[5] = system: Parkinson's patient; assay: Onset of dyskinesias after Levodopa, with and without magnetic resonance (MR) treatment; type: in vivo, human; details: for % Improved: MR result vs baseline; for MR Result Onset of Dyskinesias: MR whole body immersion (7′)
Description: Subsequently, the selected magnetic resonance treatment regimen may be transmitted from the MR system server 160 to the client computer 120. The operator 138 then may carry out the treatment regimen upon the subject 150 according to the recommended treatment regimen. For example, the recommended magnetic resonance treatment regimen may specify a certain number and frequency of treatment events, wherein for each treatment an amount of a certain substance is administered to the body of the subject, and the subject is then resonated with electromagnetic energy of a certain flux density and certain frequency for a certain amount of time. Subsequent to each magnetic resonance treatment, all related data is updated locally at the client computer 120 and/or remotely at the MR system server 160.

[6] = system: Parkinson's patient; assay: Average off time of Levodopa, baseline versus MR treatment; type: in vivo, human; details: for % Improved: MR result vs baseline
Excerpt: In the example of Table 1, the MR analysis algorithm 166 has performed a query, for example, on the terms “Indication=Parkinson's” in combination with “Substance=Levodopa,” in order to produce one or more records of one or more subjects of one or more treatment events. Subsequently, the selected magnetic resonance treatment regimen may be transmitted from the MR system server 160 to the client computer 120. The operator 138 then may carry out the treatment regimen upon the subject 150 according to the recommended treatment regimen. For example, the recommended magnetic resonance treatment regimen may specify a certain number and frequency of treatment events, wherein for each treatment an amount of a certain substance is administered to the body of the subject, and the subject is then resonated with electromagnetic energy of a certain flux density and certain frequency for a certain amount of time. Subsequent to each magnetic resonance treatment, all related data is updated locally at the client computer 120 and/or remotely at the MR system server 160. Using the example of a subject 150 that has Parkinson's disease, a side effect of certain Parkinson's drugs may be involuntary movements called dyskinesias. Therefore, an example of results that may be logged in treatment data 137 may be observations as to the amount of time from beginning of treatment to the onset of dyskinesias, which is an indication as to the amount of time that it has taken for the substance 152 to enter the subject's body systems. Other observable effects of the MR treatment after the substance 152 that has been administered to the subject's body systems may be a reduction in off time of the drug, a reduction in tremors, and a reduction in joint stiffness.

[7] = same subject, thirteen MR treatments within a two-month period

Compound: C[C@]12C=CC(=O)N[C@@H]1CC[C@@H]1[C@@H]2CC[C@]2(C)[C@@H](C(=O)Nc3cc(C(F)(F)F)ccc3C(F)(F)F)CC[C@@H]12 [Avodart]
- PSA count, last measurement before MR treatment [1]: 2.35
- PSA count after eighteen months of treatment [1]: 0.95
- prostate size after eighteen months of treatment [1]: no longer enlarged

Compound: Cc1ccc(-c2cc(C(F)(F)F)nn2-c2ccc(S(N)(=O)=O)cc2)cc1 [Celebrex]
- results of treatment ([2]; arthritis pain and sciatica, taking Celebrex, resonated at least three times per week, one to two hours per session): a reduction in dosage and frequency of taking Celebrex, decreased pain, improved mobility, and improved sleep

Compound: CCOC(=O)N1CCC(=C2c3ccc(Cl)cc3CCc3cccnc32)CC1 [Claritin]
- pain level after treatment, first series [3, 7]: 0.5

Compound: O=C1CN=C(c2ccccc2Cl)c2cc([N+](=O)[O-])ccc2N1 [Clonazepam]
- pain level after treatment, first series [3, 7]: 0.5

Compound: CCOc1ccccc1OCCN[C@H](C)Cc1ccc(OC)c(S(N)(=O)=O)c1 [Flomax]
- PSA count, last measurement before MR treatment [1]: 2.35
- PSA count after eighteen months of treatment [1]: 0.95
- prostate size after eighteen months of treatment [1]: no longer enlarged

Compound: CCC(=O)O[C@]1(C(=O)SCF)[C@H](C)C[C@H]2[C@@H]3C[C@H](F)C4=CC(=O)C=C[C@]4(C)[C@@]3(F)[C@@H](O)C[C@@]21C [Flonase]
- pain level after treatment, first series [3, 7]: 0.5

Compound: NS(=O)(=O)c1cc2c(cc1Cl)NCNS2(=O)=O [HCTZ]
- pre-treatment pain level, first series ([3]; person, fibromyalgia, back pain, on the listed drugs, before MR): 4
- initial pain level, second series ([3]; same subject, approx. two months after first series, before second regimen): 4
- pain level after treatment, first series [3, 7]: 0.5

Compound: CNS(=O)(=O)Cc1ccc2[nH]cc(CCN(C)C)c2c1 [Immitrex]
- results on migraines [4]: decreased frequency and duration of migraines
- pain level before being resonated [4]: nine
- reduction in pain level [4]: 50%
- pain level after treatment [4]: two

Compound: N[C@@H](Cc1ccc(O)c(O)c1)C(=O)O [Levodopa]
- time from consuming Levodopa to dyskinesias ([5]; Example 1, Parkinson's patient, no magnetic resonance): about 38 minutes
- time from consuming Levodopa to dyskinesias ([5]; Example 1, same Parkinson's patient, substantially the same dosage, then receives magnetic resonance): about 22 minutes
- absorption rate and efficacy of Levodopa on resonating the patient ([5]; Parkinson's patient resonated after consuming Levodopa): improved the absorption rate of Levodopa
- % Improved ([5]; Record # 1265: onset of dyskinesias, Levodopa 25 mg): 42%
- Baseline Onset of Dyskinesias ([5]; Record # 1265: subject A-84, Parkinson's, Levodopa 25 mg ingested): Onset of Dyskinesias 38 mins
- MR Result Onset of Dyskinesias ([5]; Record # 1265: subject A-84, Levodopa 25 mg ingested, 0.0667 microgauss, 2.0 Hz, square, 60 mins): Onset of Dyskinesias 22 mins
- % Improved ([5]; Record # 7508: onset of dyskinesias, Levodopa 50 mg): 37%
- Baseline Onset of Dyskinesias ([5]; Record # 7508: subject W-65, Parkinson's, Levodopa 50 mg ingested): Onset of Dyskinesias 43 mins
- MR Result Onset of Dyskinesias ([5]; Record # 7508: subject W-65, Levodopa 50 mg ingested, 0.0697 microgauss, 1.9 Hz, sinusoidal, 80 mins): Onset of Dyskinesias 27 mins
- % Improved ([6]; Record # 4752: average off time, Levodopa 50 mg): 17%
- Baseline Average off time ([6]; Record # 4752: subject W-65, Parkinson's, Levodopa 50 mg ingested): Average off time 6 hours
- MR Result Average off time ([6]; Record # 4752: subject W-65, Levodopa 50 mg ingested, MR partial immersion (4′), 0.0697 microgauss, 1.9 Hz, sinusoidal, 90 mins): Average off time 5 hours
- % Improved ([6]; Record # 5942: average off time, Levodopa 25 mg): 33%
- Baseline Average off time ([6]; Record # 5942: subject AA-35, Parkinson's, Levodopa 25 mg ingested): Average off time 6 hours
- MR Result Average off time ([6]; Record # 5942: subject AA-35, Levodopa 25 mg ingested, MR partial immersion (22″), 0.0717 microgauss, 1.8 Hz, triangle, 70 mins): Average off time 4 hours

Compound: CC(C)C[C@H](CN)CC(=O)O [Lyrica]
- pain level after treatment, first series ([3]; in vivo): 0.5

Compound: CN1CC[C@]23c4c5ccc(O)c4O[C@H]2[C@@H](O)C=C[C@H]3[C@H]1C5 [Morphine]
- pain level after treatment, first series ([3]; in vivo): 0.5

Compound: COc1ccc2cc([C@H](C)C(=O)O)ccc2c1 [Naproxen]
- results of continuing treatment ([2]; back pain (degenerative disk disease, sciatica), taking the drugs, resonated approx. three times per week for more than one year): significantly less pain, an improved range of motion, and improved sleep
- pain level before treatment ([3]; Person, fibromyalgia, took Naproxen (Aleve)): six
- initial pain levels before treatments ([3]; person, fibromyalgia, taking Naproxen (Aleve), depending on the area of the body): three to seven
- pain after treatment ([3]; same subject, daily (when possible) MR treatments for approximately one year): total elimination of pain
- pain level after completing treatment ([3]; same subject, seven consecutive days of 1 to 1.5 hour MR treatments): zero to one

Compound: COc1ccccc1OCC(O)COC(N)=O (stereo not drawn) [Robaxin]
- pain level after treatment, first series [3, 7]: 0.5

Compound: CC1(C)O[C@@H]2[C@@H](CO[C@@]3(COS(N)(=O)=O)OC(C)(C)O[C@@H]23)O1 [Topomax]
- results on migraines [4]: decreased frequency and duration of migraines
- pain level before being resonated [4]: nine
- reduction in pain level [4]: 50%
- pain level after treatment [4]: two

Compound: CCN(CC)CC(=O)Nc1c(C)cccc1C [lidoderm]
- pain level after treatment, first series [3, 7]: 0.5

— US8421457B2, “Methods and systems for magnetically resonating both a subject and a substance administered to the subject” (Applied Magnetics, LLC, priority 2008, dated 2013)
